For one assay, the target named is T1, PDE4D (Homo sapiens, UniProt Q08499).
T1 construct: PDE4D: The catalytic domain of human PDE4B from S3 16-V692; His6 (N); thrombin cleavage site (N); made in house; host or cells: E. coli
The experiment in a line: PDE4 IC50 determination by Scintillation Proximity Assay, PDE4D. In kind it is biochemical. Particulars: Table 1B, Formula I compounds; read-out: IC50 PDE4D. Put shortly: (§1)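 Radiometric SPA: PDE4B (80 ng/ml) or PDE4D (4 ng/ml) hydrolysed [^3H]cAMP over 30 min at 30°, and the bead-bound [^3H]AMP was scintillation-counted.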
In general terms: Scintillation proximity formats need no separation of bound from free tracer.

For assay [1], the target named is T2, PDE4B: The catalytic domain of human PDE4B from S152-S528 (Homo sapiens, UniProt Q07343).
T2 construct: His6 (N); thrombin cleavage site (N); made in house; host or cells: E. coli
T2 sequence (Q07343 with tags, fused parts or gaps): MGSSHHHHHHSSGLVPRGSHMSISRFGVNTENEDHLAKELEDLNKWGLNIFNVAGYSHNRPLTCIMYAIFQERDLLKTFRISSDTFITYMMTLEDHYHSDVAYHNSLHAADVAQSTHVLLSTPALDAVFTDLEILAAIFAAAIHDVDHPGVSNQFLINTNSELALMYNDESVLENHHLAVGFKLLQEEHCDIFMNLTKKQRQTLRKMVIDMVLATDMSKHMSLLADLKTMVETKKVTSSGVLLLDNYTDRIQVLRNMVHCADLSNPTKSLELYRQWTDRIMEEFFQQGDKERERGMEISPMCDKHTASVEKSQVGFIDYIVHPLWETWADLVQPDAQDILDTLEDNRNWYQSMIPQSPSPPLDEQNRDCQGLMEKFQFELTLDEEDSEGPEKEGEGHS
In words: PDE4 IC50 determination by Scintillation Proximity Assay, PDE4B. In kind it is biochemical. Particulars: Table 1B, Formula I compounds; read-out: IC50 PDE4B. An outline of the steps:
as §1

23 compounds from US7585859B2, “PDE4B inhibitors and uses therefor” (Plexxikon, Inc., priority 2004, dated 2009) can be followed below.

The term IC50 denotes the concentration that gives 50% inhibition.

T1 sequence (Q08499 380-756): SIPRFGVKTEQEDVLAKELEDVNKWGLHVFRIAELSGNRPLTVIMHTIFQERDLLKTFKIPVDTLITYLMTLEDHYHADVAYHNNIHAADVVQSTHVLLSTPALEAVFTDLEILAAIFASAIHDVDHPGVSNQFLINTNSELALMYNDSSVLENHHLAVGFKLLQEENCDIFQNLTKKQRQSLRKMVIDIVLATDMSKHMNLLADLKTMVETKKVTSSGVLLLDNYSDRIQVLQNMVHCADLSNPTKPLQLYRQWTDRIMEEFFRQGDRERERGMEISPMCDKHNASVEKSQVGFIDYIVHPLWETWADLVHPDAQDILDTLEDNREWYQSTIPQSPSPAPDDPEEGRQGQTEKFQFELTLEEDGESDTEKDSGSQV

On to `CCc1ccccc1Nc1sc(C(=O)c2ccc(OC)cc2OC)c(N)c1C#N` [Compound 1-104, 4-Amino-5-(2,4-dimethoxy-benzoyl)-2-(2-ethyl-phenylamino)-thiophene-3-carbonitrile], for which the IC50 (on PDE4D; in assay [1]) was under 10 µM throughout.
For the compound `COc1ccc(Nc2sc(C(=O)c3coc4ccccc34)c(N)c2C#N)cc1` [Compound 1-105, 4-Amino-5-(benzofuran-3-carbonyl)-2-(4-methoxy-phenylamino)-thiophene-3-carbonitrile], the IC50 (on PDE4D; in assay [1]) was under 10 µM each time.
For the compound `COC(=O)C(CC(C)C)Nc1sc(C(=O)c2coc3ccccc23)c(N)c1C#N` (stereo not shown) [Compound 1-106, 2-[4-Amino-5-(benzofuran-3-carbonyl)-3-cyano-thiophen-2-ylamino]-4-methyl-pentanoic acid methyl ester], the IC50 at PDE4D was over 10 µM; in assay [1], under 10 µM.
The like results for `COC(=O)C(CCSC)Nc1sc(C(=O)c2coc3ccccc23)c(N)c1C#N` (stereo not shown) [Compound 1-107, 2-[4-Amino-5-(benzofuran-3-carbonyl)-3-cyano-thiophen-2-ylamino]-4-methylsulfanyl-butyric acid methyl ester] were, in that order, under 10 µM and under 10 µM.
Turning to `N#Cc1c(Nc2ccc(C(=O)NC3CCOC3=O)cc2)sc(C(=O)c2coc3ccccc23)c1N` (stereo not shown) [Compound 1-108, 4-[4-Amino-5-(benzofuran-3-carbonyl)-3-cyano-thiophen-2-ylamino]-N-(2-oxo-tetrahydro-furan-3-yl)-benzamide], the IC50 (on PDE4D; in assay [1]) was under 10 µM in each case.
As for `CCc1ccccc1Nc1sc(C(=O)c2coc3ccccc23)c(N)c1C#N` [Compound 1-109, 4-Amino-5-(benzofuran-3-carbonyl)-2-(2-ethyl-phenylamino)-thiophene-3-carbonitrile], the IC50 (on PDE4D; in assay [1]) was under 10 µM throughout.
On to `COC(=O)C(CC(C)C)Nc1sc(C(=O)c2ccccc2Cl)c(N)c1C#N` (stereo not shown) [Compound 1-111, 2-[4-Amino-5-(2-chloro-benzoyl)-3-cyano-thiophene-2-ylamino]-4-methyl-pentanoic acid methyl ester], for which the IC50 (at PDE4D; in assay [1]) was under 10 µM throughout.
As to `COC(=O)C(CCSC)Nc1sc(C(=O)c2ccccc2Cl)c(N)c1C#N` (stereo not shown) [Compound 1-112, 2-[4-Amino-5-(2-chloro-benzoyl)-3-cyano-thiophene-2-ylamino]-4-methylsulfanyl-butyric acid methyl ester], the IC50 (at PDE4D; in assay [1]) was under 10 µM each time.
For the compound `COc1ccc(CNc2sc(C(=O)c3ccccc3Cl)c(N)c2C#N)cc1OC` [Compound 1-113, 4-Amino-5-(2-chloro-benzoyl)-2-(3,4-dimethoxy-benzylamino)-thiophene-3-carbonitrile], the IC50 (at PDE4D; in assay [1]) was under 10 µM throughout.
On to `N#Cc1c(Nc2ccc(C(=O)NC3CCOC3=O)cc2)sc(C(=O)c2ccccc2Cl)c1N` (stereo not shown) [Compound 1-114, 4-[4-Amino-5-(2-chloro-benzoyl)-3-cyano-thiophen-2-ylamino]-N-(2-oxo-tetrahydro-furan-3-yl)-benzamide], for which the IC50 (on PDE4D; in assay [1]) was under 10 µM in each case.
For `N#Cc1c(NC2CCCC2)sc(C(=O)c2ccccc2Cl)c1N` [Compound 1-115, 4-Amino-5-(2-chloro-benzoyl)-2-cyclopentylamino-thiophene-3-carbonitrile], the IC50 (on PDE4D; in assay [1]) was under 10 µM in each case.
Regarding `N#Cc1c(NC2CCOC2=O)sc(C(=O)c2ccccc2Cl)c1N` (stereo not shown) [Compound 1-116, 4-Amino-5-(2-chloro-benzoyl)-2-(2-oxo-tetrahydro-furan-3-ylamino)-thiophene-3-carbonitrile], the IC50 (on PDE4D; in assay [1]) was over 10 µM each time.
As to `COc1ccc(Nc2sc(C(=O)c3cccc(Cl)c3)c(N)c2C#N)cc1` [Compound 1-117, 4-Amino-5-(3-chloro-benzoyl)-2-(4-methoxy-phenylamino)-thiophene-3-carbonitrile], the IC50 (at PDE4D; in assay [1]) was under 10 µM throughout.
`COC(=O)C(CC(C)C)Nc1sc(C(=O)c2cccc(Cl)c2)c(N)c1C#N` (stereo not shown) [Compound 1-118, 2-[4-Amino-5-(3-chloro-benzoyl)-3-cyano-thiophen-2-ylamino]-4-methyl-pentanoic acid methyl ester]: the IC50 at PDE4D was over 10 µM; in assay [1] it was under 10 µM.
The matching figures for `N#Cc1c(Nc2ccc(C(=O)NC3CCOC3=O)cc2)sc(C(=O)c2cccc(Cl)c2)c1N` (stereo not shown) [Compound 1-119, 4-[4-Amino-5-(3-chloro-benzoyl)-3-cyano-thiophen-2-ylamino]-N-(2-oxo-tetrahydro-furan-3-yl)-benzamide]: under 10 µM and under 10 µM.
The matching figures for `N#Cc1c(NC2CCCC2)sc(C(=O)c2cccc(Cl)c2)c1N` [Compound 1-120, 4-Amino-5-(3-chloro-benzoyl) 2-cyclopentylamino-thiophene-3-carbonitrile]: under 10 µM and under 10 µM.
The like results for `COC(=O)C(CC(C)C)Nc1sc(C(=O)c2csc3ccccc23)c(N)c1C#N` (stereo not shown) [Compound 1-121, 2-[4-Amino-5-(benzo[b]thiophene-3-carbonyl)-3-cyano-thiophen-2-ylamino]-4-methyl-pentanoic acid methyl ester] were, in that order, under 10 µM and under 10 µM.
Consider `COC(=O)C(CCSC)Nc1sc(C(=O)c2csc3ccccc23)c(N)c1C#N` (stereo not shown) [Compound 1-122, 2-[4-Amino-5-(benzo[b]thiophene-3-carbonyl)-3-cyano-thiophen-2-ylamino]-4-methylsulfanyl-butyric acid methyl ester], for which the IC50 (on PDE4D; in assay [1]) was under 10 µM each time.
With `N#Cc1c(Nc2ccc(C(=O)NC3CCOC3=O)cc2)sc(C(=O)c2csc3ccccc23)c1N` (stereo not shown) [Compound 1-123, 4-[4-Amino-5-(benzo[b]thiophene-3-carbonyl)-3-cyano-thiophen-2-ylamino]-N-(2-oxo-tetrahydro-furan-3-yl)-benzamide], the IC50 (at PDE4D; in assay [1]) was under 10 µM in each case.
`N#Cc1c(NC2CCCC2)sc(C(=O)c2csc3ccccc23)c1N` [Compound 1-124, 4-Amino-5-(benzo[b]thiophene-3-carbonyl)-2-cyclopentylamino-thiophene-3-carbonitrile]: the figures for the IC50 (on PDE4D; in assay [1]) were over 10 µM and under 10 µM, respectively.
For the compound `COC(=O)c1ccccc1Nc1sc(C(=O)c2cnn(-c3ccccc3)c2C)c(N)c1C#N` [Compound 1-126, 2-[4-Amino-3-cyano-5-(5-methyl-1-phenyl-1H-pyrazole-4-carbonyl)-thiophen-2-ylamino]-benzoic acid methyl ester], the IC50 (at PDE4D; in assay [1]) was under 10 µM each time.
Turning to `Cc1c(C(=O)c2sc(Nc3ccc(C(=O)NC4CCOC4=O)cc3)c(C#N)c2N)cnn1-c1ccccc1` (stereo not shown) [Compound 1-127, 4-[4-Amino-3-cyano-5-(5-methyl-1-phenyl-1H-pyrazole-4-carbonyl)-thiophen-2-ylamino]-N-(2-oxo-tetrahydro-furan-3-yl)-benzamide], the IC50 (on PDE4D; in assay [1]) was under 10 µM each time.
As to `Cc1onc(-c2ccccc2)c1C(=O)c1sc(Nc2ccccc2F)c(C#N)c1N` [Compound 1-128, 4-Amino-2-(2-fluoro-phenylamino)-5-(5-methyl-3-phenyl-isoxazole-4-carbonyl)-thiophene-3-carbonitrile], the IC50 (on PDE4D; in assay [1]) was under 10 µM throughout.
